This note sets out measurements from article PMC12152147, “DDB1 engagement defines the selectivity of S656 analogs for cyclin K degradation over CDK inhibition” (EMBO Reports, 2025).

Where “and” joins values, the source holds several entries; their conditions need not be identical. Equal entries are not always repeated.

Assay [1] relates to OCI-AML5 and U937 cell lines. Briefly: Synergistic interaction assay with THZ531 (Bliss score). The format is cell-based. An excerpt: 3. It may be worthwhile to investigate whether the CDK12/13 inhibitor THZ531 could synergize with S656 or analogues like UOM-005636 that specifically degrade Cyclin K, in combination cytotoxicity assays, assessing selective suppression of AML viability over normal cells. Both […]
inhibiting CDK12, and S656 / UOM-005636 by degrading Cyclin K. Similar synergistic effects were observed by Katharina et al., where THZ531 promoted prostate ca ncer cell sensitivity to androgen deprivation therapy [Frei, K et. al. Inhibition of the Cyclin K-CDK12 complex induces DNA damage and increases the effect of androgen deprivation therapy in prostate cancer. Int J […]
Indeed, THZ531 is a covalent CDK12/13 inhibitor that specifically binds to the kinase pocket of […]
pocket of CDK12, and that pre-incubation with THZ531 competes with S656-mediated Cyclin K degradation (see Figure 5E).
We performed a synergistic interaction assay between THZ531 and S656 or UOM-005636 in OCI-AML5 and U937 cell lines (see below). […]
interactions between THZ531 and our cyclin K degrader molecules. This is likely due to both drugs competing for the same binding site, rather than acting through complementary pathways. […]

Assay [2] has as its target T1, OCI-AML5 total protein extracts (cyclin K, CDKs, DDB1) (Homo sapiens, UniProt P45844).
T1 construct: endogenous in cells; host or cells: OCI-AML5 total protein extract
Briefly: Pull-down with immobilized probes and quantitative mass spectrometry. The format is binding, H. sapiens. The following applies: protein ABCG1 (P45844). Here is the method:
(§1) Probe compounds were immobilized through their terminal amine on NHS-sepharose beads as previously described (Médard et al, [2015]). The prepared beads were then washed in PBS and equilibrated in Triton X-100 buffer. For each replicate, 1–2 mg of total proteins (2 mg/ml) were incubated end-over-end with 25 μl of beads overnight at 4 °C in low protein binding microtubes (Sarstedt). The samples were then washed twice in Triton X-100 buffer, transferred to new microtubes and further washed six times in PBS including another microtube transfer at the last wash. Beads pellets were resuspended in 50 mM ammonium bicarbonate and subjected to reduction, alkylation and tryptic digest as described above. Peptides were separated on an home-made reversed-phase column (150-μm i.d. by 200 mm) with a 56-min gradient from 10 to 30% ACN-0.2% FA and a 600-nl/min flow rate on a Easy nLC-1200 connected to a Exploris 480 (ThermoFisher Scientific, San Jose, CA). Each full MS spectrum acquired at a resolution of 120,000 was followed by tandem-MS (MS-MS) spectra acquisition on the most abundant multiply charged precursor ions for 3 s. Tandem-MS experiments were performed using higher energy collision dissociation (HCD) at a collision energy of 34%. The data were processed using PEAKS X Pro (Bioinformatics Solutions, Waterloo, ON) and a Uniprot human database (20366 entries). Mass tolerances on precursor and fragment ions were 10 ppm and 0.01 Da, respectively. Fixed modification was carbamidomethyl (C). Variable selected posttranslational modifications were acetylation (N-ter), oxidation (M), deamidation (NQ), phosphorylation (STY). The data were visualized with Scaffold 5.0 (protein threshold, 99%, with at least 2 peptides identified and a false-discovery rate [FDR] of 1% for peptides).
(§2) Differential Enrichment analysis of Proteomics data (DEP) package (Zhang et al, [2018]) in R was used to analyze the data (excluding proteins identified based on a single peptide), including data filtering, normalization, imputation of missing values and statistical testing of differentially expressed proteins.

In assay [3] the target is T2, OCI-AML5 total protein extracts (cyclin K, CDKs, DDB1) (Homo sapiens, UniProt Q96IU4).
T2 construct: endogenous in cells; host or cells: OCI-AML5 total protein extract
T2 sequence (Q96IU4 1-210): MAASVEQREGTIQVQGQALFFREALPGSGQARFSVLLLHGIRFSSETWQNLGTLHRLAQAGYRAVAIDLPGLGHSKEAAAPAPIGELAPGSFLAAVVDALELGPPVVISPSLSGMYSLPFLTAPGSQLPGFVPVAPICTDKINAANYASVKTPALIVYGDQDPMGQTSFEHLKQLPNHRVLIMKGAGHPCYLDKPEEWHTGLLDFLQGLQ
The assay is described as above. The format is binding, H. sapiens. The following applies: protein ABHD14B (Q96IU4). Here is the method: as §1, §2

The target of assay [4] is T3, OCI-AML5 total protein extracts (cyclin K, CDKs, DDB1) (Homo sapiens, UniProt O75909).
T3 construct: endogenous in cells; host or cells: OCI-AML5 total protein extract
T3 sequence (O75909 whole entry): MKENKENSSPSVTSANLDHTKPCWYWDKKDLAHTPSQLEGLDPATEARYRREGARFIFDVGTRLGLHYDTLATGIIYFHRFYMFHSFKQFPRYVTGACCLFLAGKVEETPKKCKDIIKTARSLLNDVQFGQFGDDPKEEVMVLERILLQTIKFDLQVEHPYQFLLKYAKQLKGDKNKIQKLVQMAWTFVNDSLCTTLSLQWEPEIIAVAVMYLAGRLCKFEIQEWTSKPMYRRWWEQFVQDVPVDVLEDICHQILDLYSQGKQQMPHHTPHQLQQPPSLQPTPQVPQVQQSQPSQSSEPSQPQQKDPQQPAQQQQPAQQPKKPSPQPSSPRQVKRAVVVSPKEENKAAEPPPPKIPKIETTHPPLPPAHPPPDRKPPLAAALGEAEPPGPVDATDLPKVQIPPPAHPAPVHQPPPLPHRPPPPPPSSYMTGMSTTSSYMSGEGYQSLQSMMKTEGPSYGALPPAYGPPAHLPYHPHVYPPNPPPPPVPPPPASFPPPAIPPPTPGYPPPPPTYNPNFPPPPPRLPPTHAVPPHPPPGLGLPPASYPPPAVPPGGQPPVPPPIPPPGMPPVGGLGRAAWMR
Described as above. Format: binding, H. sapiens. The following applies: OCI-AML5 total protein extracts; DEP analysis. Here is the method:
as §1, §2

The target of assay [5] is T4, OCI-AML5 total protein extracts (cyclin K, CDKs, DDB1) (Homo sapiens, UniProt Q16531).
T4 construct: endogenous in cells; host or cells: OCI-AML5 total protein extract
T4 sequence (Q16531 whole entry): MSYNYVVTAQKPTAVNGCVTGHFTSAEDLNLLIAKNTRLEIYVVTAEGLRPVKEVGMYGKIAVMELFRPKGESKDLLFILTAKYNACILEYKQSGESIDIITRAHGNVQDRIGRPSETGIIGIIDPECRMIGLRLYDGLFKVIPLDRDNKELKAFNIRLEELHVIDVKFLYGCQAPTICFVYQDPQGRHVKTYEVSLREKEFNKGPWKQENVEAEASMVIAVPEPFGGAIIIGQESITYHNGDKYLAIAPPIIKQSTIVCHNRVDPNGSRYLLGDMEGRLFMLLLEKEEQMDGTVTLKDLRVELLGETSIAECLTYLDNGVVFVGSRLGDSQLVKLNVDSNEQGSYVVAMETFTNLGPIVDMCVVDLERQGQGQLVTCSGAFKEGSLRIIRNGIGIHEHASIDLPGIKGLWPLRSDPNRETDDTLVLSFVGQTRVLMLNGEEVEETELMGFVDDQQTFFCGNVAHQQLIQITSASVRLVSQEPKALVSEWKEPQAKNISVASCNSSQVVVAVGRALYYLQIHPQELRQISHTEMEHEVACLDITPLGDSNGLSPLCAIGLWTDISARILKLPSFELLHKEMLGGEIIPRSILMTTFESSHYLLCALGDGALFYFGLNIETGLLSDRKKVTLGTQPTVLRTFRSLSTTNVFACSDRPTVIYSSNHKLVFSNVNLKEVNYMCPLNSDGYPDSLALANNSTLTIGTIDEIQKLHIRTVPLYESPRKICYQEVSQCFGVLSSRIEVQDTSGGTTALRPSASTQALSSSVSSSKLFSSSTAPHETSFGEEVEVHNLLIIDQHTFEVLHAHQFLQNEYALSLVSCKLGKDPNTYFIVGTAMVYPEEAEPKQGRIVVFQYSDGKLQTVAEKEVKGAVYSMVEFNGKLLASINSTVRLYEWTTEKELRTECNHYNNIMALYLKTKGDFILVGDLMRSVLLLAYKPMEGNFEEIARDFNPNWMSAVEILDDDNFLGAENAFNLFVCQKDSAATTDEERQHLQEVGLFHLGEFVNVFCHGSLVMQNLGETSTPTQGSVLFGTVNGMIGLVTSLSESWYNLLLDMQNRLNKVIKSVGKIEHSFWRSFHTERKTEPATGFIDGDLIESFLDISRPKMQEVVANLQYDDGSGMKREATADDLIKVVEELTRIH
Described as above. Format: binding, H. sapiens. The following applies: OCI-AML5 total protein extracts. Here is the method: as §1, §2

In assay [6] the target is T5, OCI-AML5 total protein extracts (cyclin K, CDKs, DDB1) (Homo sapiens, UniProt Q6UXT9).
T5 construct: endogenous in cells; host or cells: OCI-AML5 total protein extract
T5 sequence (Q6UXT9 24-468): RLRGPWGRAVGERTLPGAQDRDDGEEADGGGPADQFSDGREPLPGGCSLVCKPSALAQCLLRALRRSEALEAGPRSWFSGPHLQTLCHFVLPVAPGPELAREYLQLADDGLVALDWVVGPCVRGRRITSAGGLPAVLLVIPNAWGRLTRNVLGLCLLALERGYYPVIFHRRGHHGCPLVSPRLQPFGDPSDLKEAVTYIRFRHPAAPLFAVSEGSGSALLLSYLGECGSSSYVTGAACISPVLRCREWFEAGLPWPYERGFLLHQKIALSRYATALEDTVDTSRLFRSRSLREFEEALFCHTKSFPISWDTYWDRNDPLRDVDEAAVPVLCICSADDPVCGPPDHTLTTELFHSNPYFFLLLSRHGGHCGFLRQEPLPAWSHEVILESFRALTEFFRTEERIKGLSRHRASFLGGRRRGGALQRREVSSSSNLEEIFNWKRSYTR
Described as above. The format is binding, H. sapiens. The following applies: protein ABHD15 (Q6UXT9). Here is the method:
as §1, §2

Where [7] appears, read: centered abundance, competition (compe).
The mark [8] stands for this setting: probe vs probe with competition.
[9] abbreviates: probe with competition (compe) vs UOM-005839.
The mark [10] stands for this setting: probe with competition (compe) vs beads.

As to `CN(C)c1ccc(CC(=O)Nc2ncc(SCc3cccnc3)s2)cc1` [S656], the “synergistic interaction with THZ531 (Bliss score)” value in assay [1] is “moderate to very low synergistic”.
Take `CN(CCOCCOCCN)c1ccc(CC(=O)Nc2ncc(SCc3cccnc3)s2)cc1` [UOM-005790]: the UOM-005790_centered came out at 2.21 in assay [2] (centered abundance), 1.19 in assay [3] (centered abundance) and 1.53 in assay [6] (centered abundance). The UOM-005790compe_centered in assay [2] (setting [7]) turned out to be 1.7; in assay [3] (setting [7]), 1.42; in assay [6] (setting [7]), 1.26. In addition, the values for the UOM-005790_vs_Beads_ratio in assay [2] (immobilized probe vs beads), in assay [3] (immobilized probe vs beads) and in assay [6] (immobilized probe vs beads) were 4.82, 4.31 and 5.2, respectively. Moreover, the UOM-005790_vs_UOM-005839_ratio in assay [2] (probe vs probe UOM-005839) was 3.51; in assay [3] (probe vs probe UOM-005839), 0.69; in assay [6] (probe vs probe UOM-005839), 0.645. In addition, the UOM-005790_vs_UOM-005790compe_ratio is 0.512 in assay [2] (setting [8]), -0.227 in assay [3] (setting [8]) and 0.275 in assay [6] (setting [8]). Moreover, the UOM-005790compe_vs_UOM-005839_ratio in assay [2] (setting [9]) is on record as 3; in assay [3] (setting [9]), 0.916; in assay [6] (setting [9]) it was 0.37. The UOM-005790compe_vs_Beads_ratio was 4.31 in assay [2] (setting [10]), 4.54 in assay [3] (setting [10]) and 4.93 in assay [6] (setting [10]). The “pull-down enrichment of Cyclin K” value in assay [4] was 2.779 and 2.982 and 2.894. In addition, the “pull-down enrichment of DDB1” value in assay [5] is listed as “not enriched”.
